Values of other authors, collected in US20060078974A1, “Novel purified hydroxymethylglutaryl-CoA reductases and structures thereof” (Affinium Pharmaceuticals, Inc., priority 2004, published 2006).

Molecular target: S. aureus HMGR
Details: inhibition of S. aureus HMGR; reported value

CC(C)n1c(/C=C/[C@@H](O)C[C@@H](O)CC(=O)O)c(-c2ccc(F)cc2)c2ccccc21 (racemic) [Fluvastatin]
Ki: ~320 µM
